Tested on: MV-4-11 cells
Assay: Gene expression microarray analysis (Affymetrix PrimeView) and GSEA
Format: cell-based, human
Design: RFU PODN (11730768_x_at) / Fold change /veh PODN (11730768_x_at) / RFU LINC00158 (11744669_a_at) / Fold change /veh LINC00158 (11744669_a_at) / RFU DUSP10 (11751237_a_at) / Fold change /veh DUSP10 (11751237_a_at) / RFU ID3 (11757404_x_at) / Fold change /veh ID3 (11757404_x_at) / RFU PLEKHG5 (11737974_s_at) / Fold change /veh PLEKHG5 (11737974_s_at) / RFU LRRC4B (11730491_at) / Fold change /veh LRRC4B (11730491_at) / RFU GIMAP4 (11747438_a_at) / Fold change /veh GIMAP4 (11747438_a_at) / RFU KRT8 (11758183_x_at) / Fold change /veh KRT8 (11758183_x_at) / RFU CNN1 (11734310_a_at) / Fold change /veh CNN1 (11734310_a_at) / RFU VPS37D (11726825_at) / Fold change /veh VPS37D (11726825_at) / RFU C10orf10 (11716522_x_at) / Fold change /veh C10orf10 (11716522_x_at) / RFU KIR2DL2 /// KIR2DL4 /// KIR2DL5A /// KIR2DL5B /// KIR2DS1 /// KIR2DS2 /// KIR2DS3 /// KIR2DS4 /// KIR3DL3 /// KIR3DL3 /// KIR3DS1 (11738374_at) / Fold change /veh KIR2DL2 /// KIR2DL4 /// KIR2DL5A /// KIR2DL5B /// KIR2DS1 /// KIR2DS2 /// KIR2DS3 /// KIR2DS4 /// KIR3DL3 /// KIR3DL3 /// KIR3DS1 (11738374_at) / RFU C1QL1 (11718748_at) / Fold change /veh C1QL1 (11718748_at) / RFU TMPRSS4 (11747572_a_at) / Fold change /veh TMPRSS4 (11747572_a_at) / RFU HAMP (11756126_x_at) / Fold change /veh HAMP (11756126_x_at) / RFU RNFT2 (11725882_a_at) / Fold change /veh RNFT2 (11725882_a_at) / RFU NR4A2 (11747474_a_at) / Fold change /veh NR4A2 (11747474_a_at) / RFU ABCC12 (11746883_a_at) / Fold change /veh ABCC12 (11746883_a_at) / RFU TMEM136 (11760407_x_at) / Fold change /veh TMEM136 (11760407_x_at) / RFU CLDN22 /// WWC2 (11732394_at) / Fold change /veh CLDN22 /// WWC2 (11732394_at) / RFU HLA-DPB1 (11760878_x_at) / Fold change /veh HLA-DPB1 (11760878_x_at) / RFU SPINT1 (11716480_a_at) / Fold change /veh SPINT1 (11716480_a_at) / RFU GAP43 (11754022_s_at) / Fold change /veh GAP43 (11754022_s_at) / RFU A4GNT (11735810_at) / Fold change /veh A4GNT (11735810_at) / RFU PRB3 (11715151_x_at) / Fold change /veh PRB3 (11715151_x_at) / RFU TUBB4B (11761932_at) / Fold change /veh TUBB4B (11761932_at) / RFU CAPN14 (11732068_a_at) / Fold change /veh CAPN14 (11732068_a_at) / RFU TMCC2 (11721928_a_at) / Fold change /veh TMCC2 (11721928_a_at) / RFU IRGQ (11745062_a_at) / Fold change /veh IRGQ (11745062_a_at) / RFU FAM174B (11720279_a_at) / Fold change /veh FAM174B (11720279_a_at) / RFU TMPRSS4 (11748680_a_at) / Fold change /veh TMPRSS4 (11748680_a_at) / RFU FAM212B (11763350_a_at) / Fold change /veh FAM212B (11763350_a_at) / RFU PLEKHG5 (11743358_a_at) / Fold change /veh PLEKHG5 (11743358_a_at) / RFU ZSCAN30 (11745921_a_at) / Fold change /veh ZSCAN30 (11745921_a_at) / RFU CMKLR1 (11741424_a_at) / Fold change /veh CMKLR1 (11741424_a_at) / RFU LOC101060620 /// MAPK8IP1 (11723275_at) / Fold change /veh LOC101060620 /// MAPK8IP1 (11723275_at) / RFU SPTSSB (11747773_x_at) / Fold change /veh SPTSSB (11747773_x_at) / RFU PRSS12 (11739890_at) / Fold change /veh PRSS12 (11739890_at) / RFU BIN1 (11741810_x_at) / Fold change /veh BIN1 (11741810_x_at) / RFU WNT11 (11732464_a_at) / Fold change /veh WNT11 (11732464_a_at) / RFU C10orf10 (11716521_a_at) / Fold change /veh C10orf10 (11716521_a_at) / RFU C5orf56 (11738089_at) / Fold change /veh C5orf56 (11738089_at) / RFU CYB561 (11721691_x_at) / Fold change /veh CYB561 (11721691_x_at) / RFU ANKRD19P (11752326_a_at) / Fold change /veh ANKRD19P (11752326_a_at) / RFU OR2T12 /// OR2T33 /// OR2T8 (11738714_s_at) / Fold change /veh OR2T12 /// OR2T33 /// OR2T8 (11738714_s_at) / RFU VCAN (11748164_a_at) / Fold change /veh VCAN (11748164_a_at) / RFU JSRP1 (11732532_at) / Fold change /veh JSRP1 (11732532_at) / RFU KRTAP10-11 (11738290_x_at) / Fold change /veh KRTAP10-11 (11738290_x_at) / RFU MYO3A (11730013_a_at) / Fold change /veh MYO3A (11730013_a_at) / RFU EBF3 (11725865_a_at) / Fold change /veh EBF3 (11725865_a_at) / RFU CAMK2N1 (11719241_x_at) / Fold change /veh CAMK2N1 (11719241_x_at) / RFU C5orf56 (11738088_a_at) / Fold change /veh C5orf56 (11738088_a_at) / RFU OLFML3 (11715873_a_at) / Fold change /veh OLFML3 (11715873_a_at) / RFU LOC100653217 /// NTM (11731650_a_at) / Fold change /veh LOC100653217 /// NTM (11731650_a_at) / RFU MAPK11 (11762145_a_at) / Fold change /veh MAPK11 (11762145_a_at) / RFU FIZ1 (11724087_x_at) / Fold change /veh FIZ1 (11724087_x_at) / RFU OASL (11726364_x_at) / Fold change /veh OASL (11726364_x_at) / RFU SOX15 (11748057_x_at) / Fold change /veh SOX15 (11748057_x_at) / RFU CD79A (11719716_a_at) / Fold change /veh CD79A (11719716_a_at) / RFU HIST1H1D (11736915_at) / Fold change /veh HIST1H1D (11736915_at) / RFU CASKIN2 (11723855_a_at) / Fold change /veh CASKIN2 (11723855_a_at) / RFU LOC730098 (11760151_x_at) / Fold change /veh LOC730098 (11760151_x_at) / RFU OR4N2 (11742367_at) / Fold change /veh OR4N2 (11742367_at) / RFU PRRT2 (11749266_a_at) / Fold change /veh PRRT2 (11749266_a_at) / RFU SNX32 (11753110_a_at) / Fold change /veh SNX32 (11753110_a_at) / RFU CDHR5 (11726645_a_at) / Fold change /veh CDHR5 (11726645_a_at) / RFU RCAN1 (11760418_a_at) / Fold change /veh RCAN1 (11760418_a_at) / RFU FAM167A (11723789_a_at) / Fold change /veh FAM167A (11723789_a_at) / RFU FAM26E (11764081_at) / Fold change /veh FAM26E (11764081_at) / RFU ISYNA1 (11749810_s_at) / Fold change /veh ISYNA1 (11749810_s_at) / RFU ACY1 (11761880_at) / Fold change /veh ACY1 (11761880_at) / RFU 11764098_at / Fold change /veh 11764098_at / RFU SAMD14 (11745864_x_at) / Fold change /veh SAMD14 (11745864_x_at) / RFU NPB (11741838_a_at) / Fold change /veh NPB (11741838_a_at) / RFU TMPRSS6 (11731388_a_at) / Fold change /veh TMPRSS6 (11731388_a_at) / RFU KRTAP10-2 (11738614_at) / Fold change /veh KRTAP10-2 (11738614_at) / RFU ARHGAP8 /// PRR5-ARHGAP8 (11727945_x_at) / Fold change /veh ARHGAP8 /// PRR5-ARHGAP8 (11727945_x_at) / RFU KRTAP5-7 /// NADSYN1 (11734609_at) / Fold change /veh KRTAP5-7 /// NADSYN1 (11734609_at) / RFU RASL12 (11751679_a_at) / Fold change /veh RASL12 (11751679_a_at) / RFU CDKN2B (11736163_a_at) / Fold change /veh CDKN2B (11736163_a_at) / RFU PRF1 (11729649_at) / Fold change /veh PRF1 (11729649_at) / RFU, ZNF638 /// ZNF638-IT1 / Fold change vs veh, ZNF638 /// ZNF638-IT1 / RFU, PANK3 / Fold change vs veh, PANK3 / RFU, SH3YL1 / Fold change vs veh, SH3YL1 / RFU, ZEB2 / Fold change vs veh, ZEB2 / RFU, NRIP1 / Fold change vs veh, NRIP1 / RFU, PTTG1IP / Fold change vs veh, PTTG1IP / RFU, CAPN2 / Fold change vs veh, CAPN2 / RFU, MED14 / Fold change vs veh, MED14 / RFU, SNORA58 / Fold change vs veh, SNORA58 / RFU, C1orf63 / Fold change vs veh, C1orf63 / RFU, LRRFIP1 / Fold change vs veh, LRRFIP1 / RFU, NDUFAF7 / Fold change vs veh, NDUFAF7 / RFU, SLC12A2 / Fold change vs veh, SLC12A2 / RFU, IBTK / Fold change vs veh, IBTK / RFU, ESF1 / Fold change vs veh, ESF1 / Fold change vs veh, TMEM50B / RFU, TAOK1 / Fold change vs veh, TAOK1 / RFU, ACBD3 / Fold change vs veh, ACBD3 / RFU, TMA16 / Fold change vs veh, TMA16 / RFU, RWDD3 / Fold change vs veh, RWDD3 / RFU, BCAT1 / Fold change vs veh, BCAT1 / RFU, EDEM3 / Fold change vs veh, EDEM3 / RFU, TMEM33 / Fold change vs veh, TMEM33 / RFU, WDR75 / Fold change vs veh, WDR75 / RFU, AHCTF1 / Fold change vs veh, AHCTF1 / RFU, TFRC / Fold change vs veh, TFRC / RFU, ZDHHC17 / Fold change vs veh, ZDHHC17 / RFU, NOM1 / Fold change vs veh, NOM1 / RFU, ARL8B / Fold change vs veh, ARL8B / RFU, ZBTB11 / Fold change vs veh, ZBTB11 / RFU, TAMM41 / Fold change vs veh, TAMM41 / RFU, KIAA1704 /// LOC100996395 / Fold change vs veh, KIAA1704 /// LOC100996395 / RFU, ING1 / Fold change vs veh, ING1 / RFU, TRMT61B / Fold change vs veh, TRMT61B / RFU, FUBP3 / Fold change vs veh, FUBP3 / RFU, TP53 / Fold change vs veh, TP53 / RFU, TNKS2 / Fold change vs veh, TNKS2 / RFU, ZFP14 / Fold change vs veh, ZFP14 / RFU, ACTR2 / Fold change vs veh, ACTR2 / RFU, PPP3R1 / Fold change vs veh, PPP3R1 / RFU, PIK3R1 / Fold change vs veh, PIK3R1 / RFU, HNRNPA1 / Fold change vs veh, HNRNPA1 / RFU, RNF170 / Fold change vs veh, RNF170 / RFU, ZNF28 / Fold change vs veh, ZNF28 / RFU, RNGTT / Fold change vs veh, RNGTT / RFU, OGT / Fold change vs veh, OGT / RFU, BRD1 / Fold change vs veh, BRD1 / RFU, MARS / Fold change vs veh, MARS / RFU, ZNF655 / Fold change vs veh, ZNF655 / RFU, FAHD1 / Fold change vs veh, FAHD1 / RFU, BDP1 / Fold change vs veh, BDP1 / RFU, LRRCC1 / Fold change vs veh, LRRCC1 / RFU, ARID1A / Fold change vs veh, ARID1A / RFU, ZNF146 / Fold change vs veh, ZNF146 / RFU, ZNF330 / Fold change vs veh, ZNF330 / RFU, GPN3 / Fold change vs veh, GPN3 / RFU, C9orf123 / Fold change vs veh, C9orf123 / RFU, N4BP2L2 / Fold change vs veh, N4BP2L2 / RFU, ARFIP1 / Fold change vs veh, ARFIP1 / RFU, FAM179B / Fold change vs veh, FAM179B / RFU, BCL10 / Fold change vs veh, BCL10 / RFU, UHRF1BP1L / Fold change vs veh, UHRF1BP1L / RFU, BET1 / Fold change vs veh, BET1 / RFU, CNOT2 / Fold change vs veh, CNOT2 / RFU, ZNF268 / Fold change vs veh, ZNF268 / Fold change vs veh, ZNF507 / RFU, DGCR2 / Fold change vs veh, DGCR2 / RFU, WDSUB1 / Fold change vs veh, WDSUB1 / Fold change vs veh, HSP90B1 /// MIR3652 / RFU, ADSS / Fold change vs veh, ADSS / RFU, GK / Fold change vs veh, GK / RFU, ZNF148 / Fold change vs veh, ZNF148 / RFU, TAF9 / Fold change vs veh, TAF9 / RFU, SLC1A5 / Fold change vs veh, SLC1A5 / RFU, SLMO2 / Fold change vs veh, SLMO2 / RFU, ABCC4 / Fold change vs veh, ABCC4 / RFU, LOC101060439 /// RAP1B / Fold change vs veh, LOC101060439 /// RAP1B / RFU, RFX7 / Fold change vs veh, RFX7 / RFU, GTPBP10 / Fold change vs veh, GTPBP10 / RFU, CNEP1R1 / Fold change vs veh, CNEP1R1 / RFU, BIVM-ERCC5 /// ERCC5 / Fold change vs veh, BIVM-ERCC5 /// ERCC5 / RFU, ILF3 / Fold change vs veh, ILF3 / RFU 11762660_at / Fold change /veh 11762660_at / RFU VCAN (11757783_s_at) / Fold change /veh VCAN (11757783_s_at) / RFU DDX43 (11728927_at) / Fold change /veh DDX43 (11728927_at) / RFU KRT8 (11758188_x_at) / Fold change /veh KRT8 (11758188_x_at) / RFU NKD1 (11759106_at) / Fold change /veh NKD1 (11759106_at) / RFU SRD5A1 (11742802_a_at) / Fold change /veh SRD5A1 (11742802_a_at) / RFU TPSAB1 /// TPSB2 (11721975_s_at) / Fold change /veh TPSAB1 /// TPSB2 (11721975_s_at) / RFU GSTM3 (11746129_a_at) / Fold change /veh GSTM3 (11746129_a_at) / RFU IL23R (11737362_x_at) / Fold change /veh IL23R (11737362_x_at) / RFU TMEM51 (11727254_a_at) / Fold change /veh TMEM51 (11727254_a_at) / RFU PIWIL2 (11732686_x_at) / Fold change /veh PIWIL2 (11732686_x_at) / RFU ORM1 (11744905_x_at) / Fold change /veh ORM1 (11744905_x_at) / RFU CCDC152 (11743942_at) / Fold change /veh CCDC152 (11743942_at) / RFU ECM1 (11717891_a_at) / Fold change /veh ECM1 (11717891_a_at) / RFU IL23R (11748794_a_at) / Fold change /veh IL23R (11748794_a_at) / RFU TNFAIP8L3 (11732012_x_at) / Fold change /veh TNFAIP8L3 (11732012_x_at) / RFU MBOAT4 (11741988_at) / Fold change /veh MBOAT4 (11741988_at) / RFU 11764193_at / Fold change /veh 11764193_at / RFU TMEM53 (11763286_at) / Fold change /veh TMEM53 (11763286_at) / RFU MAGEB2 (11727129_at) / Fold change /veh MAGEB2 (11727129_at) / RFU TMEM200A (11744735_a_at) / Fold change /veh TMEM200A (11744735_a_at) / RFU CCDC152 (11751479_a_at) / Fold change /veh CCDC152 (11751479_a_at) / RFU FAM211A (11726209_a_at) / Fold change /veh FAM211A (11726209_a_at) / RFU RGS16 (11746705_a_at) / Fold change /veh RGS16 (11746705_a_at) / RFU VCAN (11755009_s_at) / Fold change /veh VCAN (11755009_s_at) / RFU RHOB (11743442_s_at) / Fold change /veh RHOB (11743442_s_at) / RFU RGS16 (11720943_a_at) / Fold change /veh RGS16 (11720943_a_at) / RFU RGS16 (11720944_at) / Fold change /veh RGS16 (11720944_at) / RFU, VPS4B / Fold change vs veh, VPS4B / RFU, CREB1 / Fold change vs veh, CREB1 / RFU, DNAJC13 / Fold change vs veh, DNAJC13 / RFU, GNAQ / Fold change vs veh, GNAQ / RFU, CDK5R1 / Fold change vs veh, CDK5R1 / RFU, ZRANB3 / Fold change vs veh, ZRANB3 / RFU, CUL4A / Fold change vs veh, CUL4A / RFU, CCNY / Fold change vs veh, CCNY / RFU, UFL1 / Fold change vs veh, UFL1 / RFU, COG3 / Fold change vs veh, COG3 / RFU, DIAPH2 / Fold change vs veh, DIAPH2 / RFU, SKA2 / Fold change vs veh, SKA2 / RFU, AFF3 / Fold change vs veh, AFF3 / RFU, LMF1 / Fold change vs veh, LMF1 / RFU, IPO11 / Fold change vs veh, IPO11 / RFU, DFFB / Fold change vs veh, DFFB / RFU, FOXP1 / Fold change vs veh, FOXP1 / RFU, CARD8 / Fold change vs veh, CARD8 / RFU, STRN3 / Fold change vs veh, STRN3 / RFU, ADK / Fold change vs veh, ADK / RFU, RASSF2 / Fold change vs veh, RASSF2 / RFU, WIPF1 / Fold change vs veh, WIPF1 / RFU, LARP1B / Fold change vs veh, LARP1B / RFU, RASA1 / Fold change vs veh, RASA1 / RFU, RB1 / Fold change vs veh, RB1 / RFU, PPFIA1 / Fold change vs veh, PPFIA1 / RFU, MAT2A / Fold change vs veh, MAT2A / RFU, CCT5 / Fold change vs veh, CCT5 / RFU, WDR92 / Fold change vs veh, WDR92 / RFU, CUX1 / Fold change vs veh, CUX1 / RFU, TTC7A / Fold change vs veh, TTC7A / RFU, TMEM135 / Fold change vs veh, TMEM135 / RFU, DEPTOR / Fold change vs veh, DEPTOR / RFU, CPM / Fold change vs veh, CPM / RFU, DNAJB6 / Fold change vs veh, DNAJB6 / RFU, CACNA2D3 / Fold change vs veh, CACNA2D3 / RFU, DTX4 / Fold change vs veh, DTX4 / RFU, TFCP2 / Fold change vs veh, TFCP2 / RFU, GMCL1 /// GMCL1P1 / Fold change vs veh, GMCL1 /// GMCL1P1 / RFU, AEBP2 / Fold change vs veh, AEBP2 / RFU, SNHG1 /// SNORD22 /// SNORD25 /// SNORD26 /// SNORD27 /// SNORD28 /// SNORD29 /// SNORD31 / Fold change vs veh, SNHG1 /// SNORD22 /// SNORD25 /// SNORD26 /// SNORD27 /// SNORD28 /// SNORD29 /// SNORD31 / Fold change (Aza/veh), C12orf56 (ProbeSet 11735607_a_at) / Fold change (ACY-1035/veh), C12orf56 (ProbeSet 11735607_a_at) / Fold change (Aza/veh), FGFR1OP (ProbeSet 11751329_s_at) / Fold change (ACY-1035/veh), FGFR1OP (ProbeSet 11751329_s_at) / Fold change (Aza/veh), VPS36 (ProbeSet 11739960_a_at) / Fold change (ACY-1035/veh), VPS36 (ProbeSet 11739960_a_at) / RFU SYPL1 (11715823_x_at) / Fold change /veh SYPL1 (11715823_x_at) / RFU IGFBP7 (11715501_s_at) / Fold change /veh IGFBP7 (11715501_s_at) / RFU REEP3 (11722064_at) / Fold change /veh REEP3 (11722064_at) / RFU IGLL1 (11728026_x_at) / Fold change /veh IGLL1 (11728026_x_at): dose or concentration left out as unconfirmed
Details: MV-4-11 cells, 48 hours

Nc1ccc(-c2cccs2)cc1NC(=O)c1ccc2c(c1)cc(C1CC1)n2CCN1CCOCC1 [ACY-1035]
Fold change /veh RGS16 (11746705_a_at): 1.06

— article PMC5218480 (PLoS ONE, 2017)
